Source: ChEMBL document CHEMBL1201862, “PubChem BioAssay data set” (2004)
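Five concentrations, 48 hours, 96-well plates. GI50 marks 50% less growth.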 Active and inactive are the calls of the source. Rule as the data show it: active = GI50 up to about 1.1 µM and inactive = higher.

Experiments:
Assay in all cases: DTP human tumour cell line panel, 48 h
RXF 393 = system: RXF 393
KM12 = system: KM12
LOX IMVI = system: LOX IMVI
K562 = system: K562
SK-MEL-2 = system: SK-MEL-2
T47D = system: T47D
OVCAR-8 = system: OVCAR-8
NCI-H522 = system: NCI-H522
SF-268 = system: SF-268
COLO 205 = system: COLO 205
SR = system: SR
M14 = system: M14
Hs-578T = system: Hs-578T
SK-MEL-28 = system: SK-MEL-28
HCT-116 = system: HCT-116
OVCAR-5 = system: OVCAR-5
NCI-H23 = system: NCI-H23
MDA-MB-231 = system: MDA-MB-231
ACHN = system: ACHN
SF-295 = system: SF-295

Measured: GI50

COc1cccc(C2SCC(=O)N2c2ccc(-n3c(-c4ccccc4)nc4ccccc4c3=O)cc2)c1OC (stereo not given)
inactive: RXF 393 > 100 µM | KM12 > 100 µM | LOX IMVI > 100 µM | K562 > 100 µM | SK-MEL-2 > 100 µM | T47D 31.6 µM | OVCAR-8 > 100 µM | NCI-H522 > 100 µM | SF-268 > 100 µM | COLO 205 > 100 µM | SR > 100 µM | M14 > 100 µM | Hs-578T > 100 µM | SK-MEL-28 > 100 µM | HCT-116 > 100 µM | OVCAR-5 > 100 µM | NCI-H23 > 100 µM | MDA-MB-231 > 100 µM | ACHN > 100 µM | SF-295 > 100 µM

CN(C)Cc1cc(C(=O)/C=C/c2cccc(Cl)c2)cc(CN(C)C)c1O
inactive: RXF 393 7.05 µM | KM12 4.97 µM | LOX IMVI 2.24 µM | K562 2.91 µM | SK-MEL-2 9.25 µM | T47D 4.18 µM | OVCAR-8 8.55 µM | NCI-H522 5.98 µM | SF-268 6.62 µM | COLO 205 1.77 µM | SR 2.28 µM | M14 3.37 µM | Hs-578T 11.4 µM | SK-MEL-28 4.16 µM | HCT-116 3.21 µM | OVCAR-5 5.69 µM | NCI-H23 14.3 µM | MDA-MB-231 2.75 µM | ACHN 2.99 µM | SF-295 13.5 µM

Cc1cc(=O)oc2c(CNC(CC(C)C)C(=O)O)c(O)ccc12 (stereo not given)
inactive: RXF 393 > 100 µM | KM12 > 100 µM | LOX IMVI > 100 µM | K562 > 100 µM | SK-MEL-2 > 100 µM | T47D > 100 µM | OVCAR-8 > 100 µM | NCI-H522 > 100 µM | SF-268 > 100 µM | COLO 205 > 100 µM | SR > 100 µM | M14 > 100 µM | Hs-578T > 100 µM | SK-MEL-28 > 100 µM | HCT-116 > 100 µM | OVCAR-5 > 100 µM | NCI-H23 > 100 µM | MDA-MB-231 > 100 µM | ACHN > 100 µM | SF-295 > 100 µM

C[C@H](CCC1=NCCN1)[C@H]1CC[C@H]2[C@@H]3CC[C@@H]4C[C@H](O)CC[C@]4(C)[C@H]3CC[C@]12C
inactive: RXF 393 12.2 µM | KM12 7.59 µM | LOX IMVI 1.95 µM | K562 2.49 µM | SK-MEL-2 4.49 µM | T47D 13.1 µM | OVCAR-8 12 µM | NCI-H522 5.41 µM | SF-268 10.6 µM | COLO 205 1.95 µM | SR 2.55 µM | M14 2.49 µM | Hs-578T 14.8 µM | SK-MEL-28 2.08 µM | HCT-116 4.72 µM | OVCAR-5 10.7 µM | NCI-H23 15 µM | MDA-MB-231 5.78 µM | ACHN 7.91 µM | SF-295 3.4 µM

CN(C)CCCNC(=O)CCNC(=O)c1cc(NC(=O)c2cc(NC(=O)c3cc(NC(=O)c4nc(NC(=O)CCCNC(=O)c5cc(NC(=O)c6cc(NC(=O)c7cc(NC(=O)c8nccn8C)cn7C)cn6C)cn5C)cn4C)cn3C)cn2C)cn1C
inactive: RXF 393 > 100 µM | KM12 73.5 µM | LOX IMVI > 100 µM | K562 > 100 µM | SK-MEL-2 > 100 µM | T47D > 100 µM | OVCAR-8 > 100 µM | NCI-H522 > 100 µM | SF-268 > 100 µM | COLO 205 > 100 µM | SR > 100 µM | M14 > 100 µM | Hs-578T > 100 µM | SK-MEL-28 > 100 µM | HCT-116 > 100 µM | OVCAR-5 > 100 µM | NCI-H23 > 100 µM | MDA-MB-231 > 100 µM | ACHN > 100 µM | SF-295 > 100 µM

CC(NNC(=O)c1cc[n+]([BH2-]C#N)cc1)c1ccccc1 (stereo not given)
inactive: RXF 393 > 100 µM | KM12 > 100 µM | LOX IMVI > 100 µM | K562 > 100 µM | SK-MEL-2 > 100 µM | T47D > 100 µM | OVCAR-8 > 100 µM | NCI-H522 > 100 µM | SF-268 > 100 µM | COLO 205 > 100 µM | SR > 100 µM | M14 > 100 µM | Hs-578T > 100 µM | SK-MEL-28 > 100 µM | HCT-116 > 100 µM | OVCAR-5 > 100 µM | NCI-H23 > 100 µM | MDA-MB-231 > 100 µM | ACHN > 100 µM | SF-295 > 100 µM
